Laboratory results taken from PubChem BioAssay AID449725 (University of Pittsburgh Molecular Library Screening Center, 2010).
The source made the active and inactive calls. No rule for the calls is given here.

System: IMR-90 human lung fibroblast viability counter screen
Test: IMR-90 fibroblast viability reduction, dose response, cytotoxicity control, cell-based, IC50 (AID 449725);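 also: 48 hour compound exposure before the viability read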

With N#Cc1ccc2sn(-c3ccccc3)c(=O)c2c1 the IC50 was > 25 µM (inactive).

For COc1ccc(CC(=O)Nc2cc(Cl)ccc2C(=O)O)cc1, the IC50 was > 25 µM (inactive).

In the case of O=c1c2cc(F)ccc2sn1-c1ccccc1, the IC50 is reported as > 25 µM (inactive).

With O=c1c2cc(Br)ccc2sn1-c1ccccc1 the IC50 was > 25 µM (inactive).

In the case of COc1ccc(C(=O)NC(CC(=O)O)c2ccccc2)cc1 (stereo not drawn), the IC50 is reported as > 25 µM (inactive).

In the case of COc1ccccc1C(=O)Nc1cc(Cl)ccc1C(=O)O, the IC50 is reported as > 25 µM (inactive).

In the case of Cc1ccccc1-n1sc2cc(F)ccc2c1=O, the IC50 is reported as 5.6 µM.

In the case of COc1ccc(C(=O)Nc2cc(Cl)ccc2C(=O)O)cc1OC, the IC50 is reported as > 25 µM (inactive).

In the case of O=C(Nc1cc(Cl)ccc1C(=O)O)c1ccc2c(c1)OCO2, the IC50 is reported as > 25 µM (inactive).

In the case of O=c1c2ccccc2sn1-c1ccc(Cl)cc1Cl, the IC50 is reported as > 25 µM (inactive).

Compound O=C(Cn1sc2ccccc2c1=O)NCc1ccccc1 has an IC50 of 6.37 µM.

COc1ccc2sn(-c3ccccc3)c(=O)c2c1 was tested, and the IC50 was > 25 µM (inactive).

Cn1c2ccccc2c(=O)n1-c1ccccc1 was tested, and the IC50 was > 25 µM (inactive).

O=C(Nc1cc(Cl)ccc1C(=O)O)c1ccc(C(F)(F)F)cc1 was tested, and the IC50 was > 25 µM (inactive).

O=C(Cn1sc2ccccc2c1=O)Nc1ccc(C(F)(F)F)cc1 gave an IC50 of 13.9 µM.

For COc1ccc(C(=O)NCC(=O)O)cc1, the IC50 was > 25 µM (inactive).

O=c1c2cc(C(F)(F)F)ccc2sn1-c1ccccc1 was tested, and the IC50 was 12 µM.

In the case of CCOC(=O)c1ccncc1NC(=O)c1ccc(OC)cc1, the IC50 is reported as > 25 µM (inactive).

In the case of O=C(Nc1cc(Cl)ccc1C(=O)O)c1ccccc1, the IC50 is reported as > 25 µM (inactive).

With O=C(O)c1ccccc1NC(=O)c1ccccc1C(=O)O the IC50 was > 25 µM (inactive).

In the case of O=C(Nc1cc(Cl)ccc1C(=O)O)c1ccc2ccccc2c1, the IC50 is reported as > 25 µM (inactive).

O=C(Nc1cc(Cl)ccc1C(=O)O)c1cocn1 was tested, and the IC50 was > 25 µM (inactive).

With CCc1ccc(C(=O)Nc2cc(Cl)ccc2C(=O)OC)cc1 the IC50 was > 25 µM (inactive).

O=C(Cn1sc2ccccc2c1=O)Nc1cccc(Br)c1 was tested, and the IC50 was > 25 µM (inactive).

O=C(Nc1cc(Cl)ccc1C(=O)O)c1ccoc1 was tested, and the IC50 was > 25 µM (inactive).

O=C(Nc1cc(Cl)ccc1C(=O)O)c1ccc(Cl)cc1 was tested, and the IC50 was > 25 µM (inactive).

In the case of COc1ccc(C(=O)Nc2cc(Cl)ccc2O)cc1, the IC50 is reported as > 25 µM (inactive).

For CCOC(=O)Cn1sc2ccccc2c1=O, the IC50 was 6.35 µM.

O=C(Nc1cc(Cl)ccc1C(=O)O)c1ccc(C2CC2)cc1 was tested, and the IC50 was > 25 µM (inactive).

In the case of COc1ccc(C(=O)Nc2cc(OC)ccc2C(=O)O)cc1, the IC50 is reported as > 25 µM (inactive).

For O=C(Cn1sc2ccccc2c1=O)Nc1cccc(F)c1, the IC50 was > 25 µM (inactive).

CCCc1ccc(C(=O)Nc2cc(Cl)ccc2C(=O)O)cc1 was tested, and the IC50 was > 25 µM (inactive).

With Cn1sc2ccccc2c1=O the IC50 was 2.32 µM.

COC(=O)c1ccc(Cl)cc1NC(=O)c1ccc(OC)cc1 was tested, and the IC50 was > 25 µM (inactive).

In the case of O=c1c2ccc(F)cc2sn1-c1ccccc1, the IC50 is reported as 7.17 µM.

O=C1CCN(C(=O)Nc2cc(Cl)ccc2C(=O)O)CC1 was tested, and the IC50 was > 25 µM (inactive).

With O=c1cc(-c2ccccc2)sn1-c1ccccc1 the IC50 was 13.4 µM.

With COc1cc(C(=O)Nc2cc(Cl)ccc2C(=O)O)cc(OC)c1OC the IC50 was > 25 µM (inactive).

With O=c1c2ccccc2on1-c1ccccc1 the IC50 was > 25 µM (inactive).

With CC(C)c1cccc(C(=O)Nc2cc(Cl)ccc2C(=O)O)c1 the IC50 was > 25 µM (inactive).

COc1ccc(C(=O)Nc2ccccc2C(=O)O)cc1 was tested, and the IC50 was > 25 µM (inactive).

O=C(Nc1cc(Cl)ccc1C(=O)O)c1ccncc1 was tested, and the IC50 was > 25 µM (inactive).

For O=C(Nc1cc(Cl)ccc1C(=O)O)c1ccc(-c2cccs2)cc1, the IC50 was > 25 µM (inactive).

In the case of O=c1c2ccccc2sn1-c1ccc(Cl)cc1, the IC50 is reported as > 25 µM (inactive).

In the case of CN(C)c1ccc(NC(=O)Cn2sc3ccccc3c2=O)cc1, the IC50 is reported as 18.4 µM.

In the case of COc1ccc(C(=O)Nc2cc(Cl)c(Br)cc2C(=O)O)cc1, the IC50 is reported as > 25 µM (inactive).

With O=c1c2cc(F)c(F)cc2sn1-c1ccccc1 the IC50 was > 25 µM (inactive).

With N#Cc1ccc(NC(=O)Cn2sc3ccccc3c2=O)cc1 the IC50 was 19.7 µM.

With CC(=O)Nc1cc(Cl)ccc1C(=O)O the IC50 was > 25 µM (inactive).

With CC(C)Cc1ccc(C(=O)Nc2cc(Cl)ccc2C(=O)O)cc1 the IC50 was > 25 µM (inactive).

COc1ccc(C(=O)Nc2cc(Cl)ccc2-c2nn[nH]n2)cc1 was tested, and the IC50 was > 25 µM (inactive).

CCc1ccc(C(=O)Nc2cc(Br)ccc2C(=O)O)cc1 was tested, and the IC50 was > 25 µM (inactive).

With Cc1cc(=O)n(-c2ccccc2)s1 the IC50 was 9.14 µM.

With CCCCCCCC(=O)Nc1cc(Cl)ccc1C(=O)O the IC50 was > 25 µM (inactive).

O=C(Nc1cc(Cl)ccc1C(=O)O)c1ccc2c(c1)CCC2 was tested, and the IC50 was > 25 µM (inactive).

For O=c1ccsn1-c1ccccc1, the IC50 was 5.79 µM.

For COc1ccc(C(=O)Nc2cc(Br)ccc2C(=O)O)cc1, the IC50 was > 25 µM (inactive).

For CCc1ccc(C(=O)Nc2cc(Cl)ccc2C(=O)O)cc1, the IC50 was > 25 µM (inactive).

For COc1ccc(C(=O)N(C)c2cc(Cl)ccc2C(=O)O)cc1, the IC50 was > 25 µM (inactive).

N#Cc1ccc(Oc2ccc3c(c2)B(O)OC3)cc1 was tested, and the IC50 was > 25 µM (inactive).

In the case of COC(=O)c1ccc(Cl)cc1NS(=O)(=O)c1ccc(OC)cc1, the IC50 is reported as 13.8 µM.

In the case of Cc1ccc(C(=O)Nc2cc(Cl)ccc2C(=O)O)cc1, the IC50 is reported as > 25 µM (inactive).

In the case of Cc1cccc(C(=O)Nc2cc(Cl)ccc2C(=O)O)c1, the IC50 is reported as > 25 µM (inactive).

In the case of C=C(C)c1ccc(C(=O)Nc2cc(Cl)ccc2C(=O)O)cc1, the IC50 is reported as > 25 µM (inactive).

In the case of COc1ccc(C(=O)Nc2cc(Cl)c(C)cc2C(=O)O)cc1, the IC50 is reported as > 25 µM (inactive).

With COc1ccc2c(c1)CN(c1cc(Cl)ccc1C(=O)O)C2=O the IC50 was > 25 µM (inactive).

O=C(Nc1cc(Cl)ccc1C(=O)O)c1ccc(-c2ccccc2)cc1 was tested, and the IC50 was > 25 µM (inactive).

O=c1c2ccccc2sn1-c1cccc(Cl)c1 was tested, and the IC50 was > 25 µM (inactive).

COc1ccc(C(=O)NC(CC(=O)O)c2ccc(Cl)cc2)cc1 (stereo not drawn) was tested, and the IC50 was > 25 µM (inactive).

With Cc1ccc(C(=O)Nc2cc(Cl)ccc2C(=O)O)cc1C the IC50 was > 25 µM (inactive).

Work on CC(=O)Nc1ccc2sn(-c3ccccc3)c(=O)c2c1 yielded an IC50 of 24.5 µM.

COc1ccc(N2C(=O)c3ccc(Cl)cc3C2=O)cc1 was tested, and the IC50 was > 25 µM (inactive).

O=c1c2ccccc2sn1-c1cccc(F)c1 showed an IC50 of 7.9 µM.

COc1cccc(C(=O)Nc2cc(Cl)ccc2C(=O)O)c1 was tested, and the IC50 was > 25 µM (inactive).

In the case of O=c1c(Br)csn1-c1ccc(Br)cc1, the IC50 is reported as > 25 µM (inactive).

With Cc1ccc(C(=O)Nc2cc(Cl)ccc2C(=O)O)c(C)c1 the IC50 was > 25 µM (inactive).

O=C(Cn1sc2ccccc2c1=O)Nc1ccccc1C(F)(F)F was tested, and the IC50 was > 25 µM (inactive).

In the case of CC(C)(C)c1ccc(C(=O)Nc2cc(Cl)c(Cl)cc2C(=O)O)cc1, the IC50 is reported as > 25 µM (inactive).
